From the NIST ThermoML archive (doi:10.1016/j.jct.2012.06.031)

Assay: xn = mol fraction of the nth substance listed
Settings: 101 kPa, Liquid; for viscosity: Concentric cylinders viscometry; for mass density: Vibrating tube method

c1ccncc1 [pyridine] + CCCO
Settings | mass density, 288.15 K [kg/m3] | mass density, 293.15 K [kg/m3] | mass density, 298.15 K [kg/m3] | mass density, 303.15 K [kg/m3] | viscosity, 288.15 K [mPa·s] | viscosity, 293.15 K [mPa·s] | viscosity, 298.15 K [mPa·s] | viscosity, 303.15 K [mPa·s]
x1 = 0.1001 | 829.179 | 825.041 | 820.881 | 816.69 | 2.059 | 1.839 | 1.651 | 1.488
x1 = 0.1998 | 849.304 | 845.036 | 840.744 | 836.425 | 1.752 | 1.577 | 1.426 | 1.291
x1 = 0.2999 | 868.538 | 864.154 | 859.747 | 855.316 | 1.533 | 1.392 | 1.269 | 1.165
x1 = 0.3998 | 887.029 | 882.542 | 878.034 | 873.5 | 1.38 | 1.261 | 1.157 | 1.064
x1 = 0.5 | 904.882 | 900.296 | 895.691 | 891.065 | 1.258 | 1.156 | 1.066 | 0.9865
x1 = 0.5999 | 922.323 | 917.643 | 912.947 | 908.231 | 1.189 | 1.096 | 1.014 | 0.9414
x1 = 0.7 | 939.461 | 934.697 | 929.913 | 925.114 | 1.127 | 1.043 | 0.9678 | 0.9013
x1 = 0.8 | 956.178 | 951.331 | 946.465 | 941.586 | 1.091 | 1.012 | 0.942 | 0.879
x1 = 0.8998 | 972.394 | 967.464 | 962.52 | 957.564 | 1.065 | 0.9891 | 0.9212 | 0.8608
x1 = 1 | 988.061 | 983.038 | 978.006 | 972.967 | 1.03 | 0.9588 | 0.8943 | 0.8355
